Assay results taken from patent publication US20060198879A1, “Patch material for ionic medicine administration” (Tokuyama Corporation, priority 2003, published 2006).
Values belong to the molecule of their own block, whether it stands above or below them.

Legend:
[1] = Amount of medicine permeated in virtual skin system; assay type: in vitro ADME; conditions: 10 mmol/l, 25° C., no voltage
Description: (4) Amount of Medicine Permeated in Virtial Skin System
(§1) An aqueous solution containing 10% by mass of a polyvinyl alcohol (NH-20 produced by The Nippon Synthetic Chemical Industry Co., Ltd.) was coated on a filter paper (a chemical analysis filter paper 5C produced by Advantec). The amount of the solution coated was such that the amount of the polyvinyl alcohol after solvent removal was 2 mg/cm^2. Then, the filter paper was allowed to stand at room temperature for 24 hours or more to vaporize the water, whereby was obtained a virtual skin. […] An aqueous solution containing a given concentration of a medicine was filled in a medicine solution chamber 22; and an aqueous solution containing […] by mass of sodium chloride was filled in a virtual skin chamber 23. Then, a permeation test was conducted at 25° C. for a given period of time with the inside of the medicine solution chamber 22 and the inside of the virtual skin chamber 23 being stirred. Right after the completion of the test, the solution inside the virtual skin chamber 23 was withdrawn and used as a sample for measurement. The amount of medicine in the sample was determined using liquid chromatography.

[2] = Amount of medicine permeated in living body skin system; assay type: in vitro ADME, miniature pig (Yucatane Micropig); conditions: 10 mmol/l, miniature pig back skin
Description: as §1
(5) Amount of Medicine Permeated in Living Body Skin System
The amount of the medicine permeated was measured in the same manner as in the virtual skin system, by replacing the virtual skin (a filter paper coated with a polyvinyl alcohol) with a living body skin, i.e. the back skin of miniature pig (Yucatane Micropig, 5 month-old, female).

[3] = magnesium salt of ascorbic acid-phosphoric acid ester, duration of permeation 1 hr
[4] = magnesium salt of ascorbic acid-phosphoric acid ester, duration of permeation 2 hr
[5] = magnesium salt of ascorbic acid-phosphoric acid ester, duration of permeation 3 hr
[6] = sodium ascorbate, duration of permeation 3 hr

Structure (SMILES): O=C1O[C@H]([C@@H](O)CO)C([O-])=C1O.[Na+] [Comparative Example 4, sodium ascorbate]
Amount of permeation [1, 6]: 5.2 μmol/cm^2

Structure (SMILES): Cl.Cl.NCCc1c[nH]cn1 [compound 6, histamine dihydrochloride]
Amount of permeation ([1]; histamine dihydrochloride, duration of permeation 3 hr): 2.5 μmol/cm^2

Structure (SMILES): O=C1O[C@H]([C@@H](O)CO)C([O-])=C1O.[Na+] [compound 8, sodium ascorbate]
Amount of permeation ([2]; sodium ascorbate, duration of permeation 1 hr): 0.003 μmol/cm^2 | Amount of permeation ([2]; sodium ascorbate, duration of permeation 2 hr): 0.005 μmol/cm^2 | Amount of permeation [2, 6]: 0.007 μmol/cm^2

Continued, values first:

Amount of permeation [1, 3]: 0.6 μmol/cm^2 | Amount of permeation [1, 4]: 1.3 μmol/cm^2 | Amount of permeation [1, 5]: 2.0 μmol/cm^2
Structure (SMILES): O=C1O[C@H]([C@@H](O)CO)C([O-])=C1OP(=O)([O-])[O-].O=C1O[C@H]([C@@H](O)CO)C([O-])=C1OP(=O)([O-])[O-].[Mg+2].[Mg+2].[Mg+2] [Comparative Example 2, magnesium salt of ascorbic acid-phosphoric acid ester]

Amount of permeation [2, 3]: 0.010 μmol/cm^2 | Amount of permeation [2, 4]: 0.013 μmol/cm^2 | Amount of permeation [2, 5]: 0.015 μmol/cm^2
Structure (SMILES): O=C1O[C@H]([C@@H](O)CO)C([O-])=C1OP(=O)([O-])[O-].O=C1O[C@H]([C@@H](O)CO)C([O-])=C1OP(=O)([O-])[O-].[Mg+2].[Mg+2].[Mg+2] [Comparative Example 9, magnesium salt of ascorbic acid-phosphoric acid ester]
